Source: patent US20250248970A1, “NOVEL SUBSTITUTED FLUORINATED N-PROPYL-PYRROLIDINE COMPOUNDS, PROCESSES FOR THEIR PREPARATION AND THERAPEUTIC USES THEREOF” (SANOFI, priority 2022, published 2025)

Biological target: T1, ERα (Homo sapiens, UniProt P03372)
T1 construct: host or cells: MCF7
T1 sequence (P03372 1-595): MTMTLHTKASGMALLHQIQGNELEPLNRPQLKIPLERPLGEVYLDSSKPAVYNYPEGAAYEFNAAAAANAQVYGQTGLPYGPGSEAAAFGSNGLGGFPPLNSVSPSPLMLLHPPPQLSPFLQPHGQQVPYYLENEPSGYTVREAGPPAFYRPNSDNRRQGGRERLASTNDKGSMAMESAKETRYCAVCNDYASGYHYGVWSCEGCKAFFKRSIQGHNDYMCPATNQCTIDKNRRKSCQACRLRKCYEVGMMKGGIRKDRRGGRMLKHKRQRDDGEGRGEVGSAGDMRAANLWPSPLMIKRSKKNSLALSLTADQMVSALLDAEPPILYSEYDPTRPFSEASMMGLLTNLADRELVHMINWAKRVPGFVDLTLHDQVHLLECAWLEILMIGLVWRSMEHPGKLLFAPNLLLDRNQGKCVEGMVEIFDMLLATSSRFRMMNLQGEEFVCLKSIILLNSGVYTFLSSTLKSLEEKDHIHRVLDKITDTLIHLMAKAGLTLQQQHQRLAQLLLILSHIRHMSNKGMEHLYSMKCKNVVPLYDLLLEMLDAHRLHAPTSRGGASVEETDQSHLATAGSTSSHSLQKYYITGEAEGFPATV
Experiment: Estrogen receptor degradation activity (breast cancer cell ERα in cell western assay)
Assay type: cell-based
Conditions: MCF7 cells, 0.3 μM, 4 hours, % of ERα levels decrease relative to fulvestrant
Procedure: Said test involves measuring the in vitro degradation activity of the compounds of the Table 1a.
The measurements of the degradation activities were made using a breast cancer cell ERα in cell western assay as described hereunder.
MCF7 cells (ATCC) were seeded in 384 wells microplate (collagen coated) at a concentration of 10000 cells/30 μL per well in red phenol free MEM alpha medium (invitrogen) containing 5% charcoal dextran striped FBS. The following day, 9 points serial 1:5 dilution of each compound was added to the cells in 2.5p L at final concentrations ranging from 0.3-0.0000018 μM (in table 2), or 0.1 μM for fulvestrant (using as positive control). At 4 hours post compound addition the cells were fixed by adding 25 μL of formalin (final concentration 5% formalin containing 0.1% triton) for 10 minutes at room temperature and then washed twice with PBS. Then, 50 μL of LI-COR blocking buffer containing 0.1% Triton was added to plate for 30 minutes at room temperature. LI-COR blocking buffer was removed and cells were incubated overnight at cold room with 50 μL anti-ER rabbit monoclonal antibody (Thermo scientific MA1-39540) diluted at 1:1000 in LI-COR blocking buffer containing 0.1% tween-20. Wells which were treated with blocking buffer but no antibody were used as background control. Wells were washed twice with PBS (0.1% tween-20) and incubated at 37° C. for 60 minutes in LI-COR (0.1% tween-20) containing goat anti-rabbit antibody Alexa 488 (1:1000) and Syto-64 a DNA dye (2 μM final concentration). Cells were then washed 3 times in PBS and scanned in ACUMEN explorer (TTP-Labtech). Integrated intensities in the green fluorescence and red fluorescence were measured to determine the levels of ERα and DNA respectively.
The degradation activity with respect to estrogen receptors in this test is given by the concentration which degrades 50% of the estrogen receptor (or IC50) in nM.
The % of ERα levels decrease were determined as follows: % inhibition=100*(1−(sample−fulvestrant: DMSO−fulvestrant)).

Structure (SMILES) | % Degradation At 0.3 μM
Oc1ccc2c(c1)SCCC(c1ccc(Cl)cc1Cl)=C2c1ccc(CC2CCN(CCCF)C2)cc1 (single isomer, unassigned; isomer 1) [Compound 43, 4-(2,4-dichlorophenyl)-5-(4-((1-(3-fluoropropyl)pyrrolidin-3-yl)methyl)phenyl)-2,3-dihydrobenzo[b]thiepin-8-ol, Isomer 1] | 80%
Cl.O=C(O)c1ccc2c(c1)CCCC(c1ccc(Cl)cc1)=C2c1ccc(CC2CCN(CCCF)C2)cc1 (single isomer, unassigned; isomer 1) [Compound 37, 8-(4-chlorophenyl)-9-(4-((1-(3-fluoropropyl)pyrrolidin-3-yl)methyl)phenyl)-6,7-dihydro-5H-benzo[7]annulene-3-carboxylic acid hydrochloride, Isomer 1] | 93%
Cl.O=C(O)c1ccc2c(c1)CCCC(c1ccc(C(F)(F)F)cc1)=C2c1ccc(CC2CCN(CCCF)C2)cc1 (single isomer, unassigned; isomer 1) [Compound 38, 9-(4-((1-(3-fluoropropyl)pyrrolidin-3-yl)methyl)phenyl)-8-(4-(trifluoromethyl)phenyl)-6,7-dihydro-5H-benzo[7]annulene-3-carboxylic acid hydrochloride, Isomer 1] | 92%
Cl.O=C(O)c1ccc2c(c1)OCCC(c1ccc(Cl)cc1Cl)=C2c1ccc(CC2CCN(CCCF)C2)cc1 (single isomer, unassigned; isomer 2) [Compound 8, 4-(2,4-dichlorophenyl)-5-(4-((1-(3-fluoropropyl)pyrrolidin-3-yl)methyl)phenyl)-2,3-dihydrobenzo[b]oxepine-8-carboxylic acid hydrochloride, Isomer 2] | 63%
Cl.O=C(O)c1ccc2c(c1)CCCC(c1ccc(F)cc1F)=C2c1ccc(CC2CCN(CCCF)C2)cc1 (single isomer, unassigned; isomer 1) [Compound 19, 8-(2,4-difluorophenyl)-9-(4-((1-(3-fluoropropyl)pyrrolidin-3-yl)methyl)phenyl)-6,7-dihydro-5H-benzo[7]annulene-3-carboxylic acid hydrochloride, Isomer 1] | 86%
Cl.O=C(O)c1ccc2c(c1)SCC(c1ccc(Cl)cc1Cl)=C2c1ccc(CC2CCN(CCCF)C2)cc1 (single isomer, unassigned; isomer 1) [Compound 25, 3-(2,4-dichlorophenyl)-4-(4-((1-(3-fluoropropyl)pyrrolidin-3-yl)methyl)phenyl)-2H-thiochromene-7-carboxylic acid hydrochloride, Isomer 1] | 68%
CC1CCc2cc(C(=O)O)ccc2C(c2ccc(CC3CCN(CCCF)C3)cc2)=C1c1ccc(C(F)(F)F)cc1 (single isomer, unassigned; isomer 2) [Compound 42, 9-(4-((1-(3-fluoropropyl)pyrrolidin-3-yl)methyl)phenyl)-7-methyl-8-(4-(trifluoromethyl)phenyl)-6,7-dihydro-5H-benzo[7]annulene-3-carboxylic acid, Isomer 2] | 90%

Continued, values first:

% Degradation At 0.3 μM | Structure (SMILES)
76% | Cl.Oc1ccc2c(c1)CCCC(c1ccc(Cl)cc1Cl)=C2c1ccc(CC2CCN(CCCF)C2)cc1 (single isomer, unassigned; isomer 1) [Compound 29, 8-(2,4-dichlorophenyl)-9-(4-((1-(3-fluoropropyl)pyrrolidin-3-yl)methyl)phenyl)-6,7-dihydro-5H-benzo[7]annulene-3-ol hydrochloride, Isomer 1]
100% | CC1CCc2cc(C(=O)O)ccc2C(c2ccc(CC3CCN(CCCF)C3)cc2)=C1c1ccc(C(F)(F)F)cc1 (single isomer, unassigned; isomer 1) [Compound 41, 9-(4-((1-(3-fluoropropyl)pyrrolidin-3-yl)methyl)phenyl)-7-methyl-8-(4-(trifluoromethyl)phenyl)-6,7-dihydro-5H-benzo[7]annulene-3-carboxylic acid, Isomer 1]
88% | COc1ccc(C2=C(c3ccc(CC4CCN(CCCF)C4)cc3)c3ccc(C(=O)O)cc3CCC2)cn1 (single isomer, unassigned; isomer 1) [Compound 14, 9-(4-((1-(3-fluoropropyl)pyrrolidin-3-yl)methyl)phenyl)-8-(6-methoxypyridin-3-yl)-6,7-dihydro-5H-benzo[7]annulene-3-carboxylic acid, Isomer 1]
84% | O=C(O)c1ccc2c(c1)CCCC(c1ccc(Cl)cc1Cl)=C2c1ccc(C(F)(F)C2CCN(CCCF)C2)cc1 (single isomer, unassigned; isomer 1) [Compound 26, 8-(2,4-dichlorophenyl)-9-(4-(difluoro(1-(3-fluoropropyl)pyrrolidin-3-yl)methyl)phenyl)-6,7-dihydro-5H-benzo[7]annulene-3-carboxylic acid, Isomer 1]
85% | Cc1cccc(C2=C(c3ccc(CC4CCN(CCC(F)F)C4)cc3)c3ccc(C(=O)O)cc3CCC2)c1C(F)(F)F.Cl (single isomer, unassigned; isomer 1) [Compound 34, 9-(4-((1-(3,3-difluoropropyl)pyrrolidin-3-yl)methyl)phenyl)-8-(3-methyl-2-(trifluoromethyl)phenyl)-6,7-dihydro-5H-benzo[7]annulene-3-carboxylic acid hydrochloride, Isomer 1]
92% | Cl.O=C(O)c1ccc2c(c1)CCC(c1ccc(Cl)cc1Cl)=C2c1ccc(CC2CCN(CCCF)C2)cc1 (single isomer, unassigned; isomer 1) [Compound 36, 6-(2,4-dichlorophenyl)-5-(4-((1-(3-fluoropropyl)pyrrolidin-3-yl)methyl)phenyl)-7,8-dihydronaphthalene-2-carboxylic acid hydrochloride, Isomer 1]
69% | O=C(O)C(F)(F)F.O=C(O)c1ccc2c(c1)CCCC(c1ccc(Cl)cc1Cl)=C2c1ccc(CC2(F)CCN(CCCF)C2)cc1 (single isomer, unassigned; isomer 1) [Compound 23, 8-(2,4-dichlorophenyl)-9-(4-((3-fluoro-1-(3-fluoropropyl)pyrrolidin-3-yl)methyl)phenyl)-6,7-dihydro-5H-benzo[7]annulene-3-carboxylic acid, 2,2,2-trifluoroacetic acid, Isomer 1]
